Test [1] has as its system Candida albicans. The experiment in a line: Antifungal activity against Candida albicans ATCC 10231 by modified microtiter plate assay. Type of test: functional.
In test [2] the test system is Saccharomyces cerevisiae. Briefly: Antifungal activity against Saccharomyces cerevisiae by modified microtiter plate assay. The test is classed as functional.
Test [3] has as its system Staphylococcus aureus. Briefly: Antibacterial activity against Staphylococcus aureus ATCC 6535 by modified microtiter plate assay. Type of test: functional.
For test [4], the system named is Bacillus cereus. The experiment in a line: Antibacterial activity against Bacillus cereus by modified microtiter plate assay. The test is classed as functional.
For test [5], the species on record is Mus musculus. Briefly: Antiproliferative activity against mouse B16B15b cells at 1 uM after 18 hrs by alamar blue assay relative to control. Type of test: functional, cell-based. On the technique in general: The colour change of resazurin is a common sign of viable cells or microbes.
Test [6] is filed under the species Gallus gallus. Briefly: Antiangiogenic activity in fertilized white leghorn chicken eggs at 57 uM/disk by CAM assay. Particulars: Egg. Type of test: functional.
The species named for test [7] is Mus musculus. Briefly: Inhibition of mouse B16B15b cell migration at 1 uM by Boyden's camber assay. Type of test: functional.
The species named for test [8] is Gallus gallus. The experiment in a line: Antiangiogenic activity in fertilized white leghorn chicken eggs at 12 uM/disk by CAM assay. Type of test: functional. Particulars: Egg.
The species entered for test [9] is Mus musculus. Briefly: Inhibition of mouse B16B15b cell migration assessed as wound closure rate at 1 uM after 14 hrs by wound healing assay relative to control. Type of test: functional.

The structures appear in SMILES notation. In brackets after ≈: the same amount, converted by molar mass. Activity calls are given as the source filed them. No cut-off for these calls is given here.

In general, MIC refers to the least concentration at which growth counts as inhibited. A high value points to a need for much substance. For the compound `C/C1=C/C(=O)O[C@@H]2CC(CC[C@H](C)/C=C\C=C\CC1)O[C@@](O)([C@H]1CSC(=O)N1)C2`, the MIC in test [1] and in test [2] was 2.5 µM (≈ 1.05 µg/mL) each time.
`CC(=O)N1C(=O)SC[C@H]1C(=O)/C=C/C[C@H]1CC[C@H](C)/C=C\CC/C(C)=C\C(=O)O1`: the MIC in [1] was determined as 2.5 µM (≈ 1.05 µg/mL); in test [2] it was 2.5 µM (≈ 1.05 µg/mL); in test [3], 17.8 µM (≈ 7.47 µg/mL); in test [4], 17.8 µM (≈ 7.47 µg/mL). Further, the outcome in [5] was Active.
For `COc1cc(/C=C/C(=O)CC(=O)/C=C/c2ccc(O)c(OC)c2)ccc1O`, the outcome in [6] was Active.
Turning to `CO[C@]1([C@@H]2CSC(=O)N2)C[C@H]2C[C@@H](CC[C@H](C)/C=C\CC/C(C)=C\C(=O)O2)O1` [15-METHOXYLATRUNCULIN B], the MIC in test [1] and in test [2] was 2.5 µM (≈ 1.02 µg/mL) throughout. Further, the outcome in [7] and in [8] was Active.
As to `CCCCO[C@]1([C@@H]2CSC(=O)N2)C[C@H]2C[C@@H](CC[C@H](C)/C=C\CC/C(C)=C\C(=O)O2)O1` [15-O-BUTYLLATRUNCULIN B], the MIC in test [1] and in test [2] was 2.5 µM (≈ 1.13 µg/mL) in each case. For the same compound, the result in test [5] was Active.
Turning to `CCCCCCCCO[C@]1([C@@H]2CSC(=O)N2)C[C@H]2C[C@@H](CC[C@H](C)/C=C\CC/C(C)=C\C(=O)O2)O1` [15-O-OCTYLLATRUNCULIN B], the MIC worked out at 2.5 µM (≈ 1.27 µg/mL) in [1], 2.5 µM (≈ 1.27 µg/mL) in test [2], 14.7 µM (≈ 7.46 µg/mL) in [3] and 14.7 µM (≈ 7.46 µg/mL) in test [4]. Also, the outcome in [5] was Active.
Turning to `Clc1ccccc1C(c1ccccc1)(c1ccccc1)n1ccnc1` [CLOTRIMAZOLE], the MIC in [1] and in test [2] was 21.7 µM (≈ 7.48 µg/mL) each time.
In the case of `C/C1=C/C(=O)O[C@@H]2C[C@@H](CC[C@H](C)/C=C\CC1)O[C@@](O)([C@@H]1CSC(=O)N1)C2` [LATRUNCULIN B], the outcome in [9] and in test [5] was Active. The MIC in [1] and in [2] was 2.5 µM (≈ 0.989 µg/mL) in each case.
As for `CC(=O)N1C(=O)SC[C@H]1[C@@]1(O)C[C@H]2C[C@@H](CC[C@H](C)/C=C\CC/C(C)=C\C(=O)O2)O1` [N-ACETYLLATRUNCULIN B], the outcome in test [9] was Active. The MIC in [1] and in test [2] was 2.5 µM (≈ 1.09 µg/mL) in each case.
As to `C/C1=C/C(=O)O[C@@H]2C[C@@H](CC[C@H](C)/C=C\CC1)O[C@@](O)([C@@H]1CSC(=O)N1CO)C2` [N-HYDROXYMETHYLLATRUNCULIN B], the MIC in [1] and in test [2] was 2.5 µM (≈ 1.06 µg/mL) in each case. In [7], the result was Active.
Take `CC1(C)S[C@@H]2[C@H](NC(=O)Cc3ccccc3)C(=O)N2[C@H]1C(=O)O` [PENICILLIN G]: the MIC in test [3] and in test [4] was 22.4 µM (≈ 7.49 µg/mL) in each case.

The values above are taken from ChEMBL document CHEMBL1157247, “Bioactive natural and semisynthetic latrunculins” (2006).
